From US9351963B2, “Defensin-like molecules as novel antimicrobial agents” (UNIVERSITY OF MARYLAND, BALTIMORE, priority 2010, dated 2016)

Experiments:
[1] = tested on: Staphylococcus aureus ATCC 29213; details: previously reported (Wei et al., J Biol Chem 285); cited from earlier work
[2] = tested on: Escherichia coli ATCC 25922; assay: 96-well turbidimetric antibacterial killing assay, E. coli; assay type: cell-based; details: E. coli ATCC 25922, 120 min exposure
Procedure: The antibacterial activity of defensin mimetics against Staphylococcus aureus ATCC 29213 and Escherichia coli 25922 was carried out in a 96-well turbidimetric assay essentially as described (Ericksen, B., Wu, Z., Lu, W., and Lehrer, R. I. (2005) Antimicrob Agents Chemother 49, 269-275) with the following modifications: compounds were exposed for 30 min to […] prior to addition of […] in 10 mM phosphate buffer containing 5% DMSO. Bacterial growth was monitored for 12 hours and data were analyzed as described (Ericksen, et al). Determination of MICs was performed by Micromyx, LLC (Kalamazoo, Mich.) according to CLSI standards (CLSI. (2009) Methods for Dilution Antimicrobial Susceptibility Tests for Bacteria That Grow Aerobically; Approved Standard—Eighth Edition.)
The inventors have previously reported on the antibacterial activity of HNP1 and all of its structurally uncompromised single alanine mutants against S. aureus (Wei, G., Pazgier, M., de Leeuw, E., Rajabi, M., Li, J., Zou, G., Jung, G., Yuan, W., Lu, W. Y., Lehrer, R. I., and Lu, W. J Biol Chem 285, 16275-16285). […] If these residues are indeed important for Lipid II binding, one would expect that replacement by alanine will not affect killing of Gram-negative bacteria. […] In particular, FIG. 12 depicts killing of E. coli by HNP-1 Lipid II single alanine mutants. Survival curves of E. coli ATCC 25922 exposed to HNP-1 or HNP-1 single alanine mutants at concentrations varying two-fold from […]. Bacteria were exposed to defensin peptides for 120 min. Each curve is the mean of two separate experiments (±S.D.). Points scored as zero survival could not be plotted.

[3] = Surface Plasmon Resonance binding to immobilized 3-Lipid II (BIAcore); details: SPR, 10 μM, room temperature, 40 RUs 3-Lipid II
Procedure: Short-chain water-soluble Lipid II containing a lipid tail of three isoprene units was generated and purified essentially as described (Breukink, E., van Heusden, H. E., Vollmerhaus, P. J., Swiezewska, E., Brunner, L., Walker, S., Heck, A. J., and de Kruijff, B. (2003) J Biol Chem 278, 19898-19903). Typically, M. flavus vesicles (120 μmol lipid-Pi) were incubated together with 500 μmol UDP-GlcNAc, 500 μmol UDP-MurNAC-pentapeptide and 400 μmol farnesyl phosphate (3-P) in 100 mM Tris-HCl pH 8.0, 5 mM MgCl2. The incubation lasted two hours at room temperature for 3-P. The synthesis of 3-Lipid II was followed using RP-8 reversed phase TLC (Merck) developed in 75% methanol. For purification, the membranes were removed by centrifugation at 40,000×g and the supernatant was collected and loaded on a C18 HPLC column and eluted with a linear gradient from 50 mM ammonium bicarbonate to 100% methanol in 30 minutes. Farnesyl-Lipid II (3-Lipid II) eluted at approximately 60% methanol. Its identity was confirmed by mass spectroscopy.
Surface Plasmon Resonance binding experiments were carried out on a BIAcore T100 system (BIAcore Inc., Piscataway, N.Y.) at 25° C. The assay buffer was 10 mM HEPES, 150 mM NaCl, 0.05% surfactant P20, pH 7.4 (±3 mM EDTA) supplemented with 10% DMSO. […] For initial determination of binding, defensin mimetics were introduced into the flow-cells (30 μl/min) in the running buffer at 10 μM. Resonance signals were corrected for nonspecific binding by subtracting the background of the control flow-cell. After each analysis, the sensor chip surfaces were regenerated with 50 mM NaOH for 30 s at a flow rate 100 μl/min, and equilibrated with the buffer prior to next injection. For binding kinetics studies, binding isotherms were analyzed with manufacturer-supplied software for BIAcore T100.

| Substance | Killing of S. aureus by HNP-1 single alanine mutants [1] | Bactericidal activity against E. coli relative to wild-type HNP-1 [2] | Binding of HNP-1 single alanine mutants to Lipid II compared to wild-type HNP-1 [3] |
| --- | --- | --- | --- |
| Ile20: HNP-1 single alanine mutant, Ile20 replaced by alanine | severely compromised | comparable to the wild-type peptide | significant reduction of binding |
| Arg15: HNP-1 single alanine mutant, Arg15 replaced by alanine | severely compromised | exception | significant reduction of binding |
